Patent US11866430B2, “Naphthyridinone compounds useful as T cell activators” (priority 2018, dated 2024)
Like-named read-outs stand apart in the source and are kept apart here.

Columns and labels:
[1] = target: human DGKζ (Homo sapiens (Human), UniProt Q13574); assay: DGKζ LIPGLO assay (extruded liposome substrate); type: biochemical
Outline: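 Sf9-derived DGKζ was premixed 10 min with PC/DAG/PS liposomes (100 nm extruded) in MOPS pH 7.5 buffer containing NaCl, MgCl2, CaCl2 and DTT.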

[2] = test system: Jurkat AP1-luciferase Reporter; assay: DGK AP1-Reporter Assay; type: cell-based
Outline: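 Jurkat cells carrying a lentiviral AP1-luciferase reporter received 30 nl compound per well for 20 min at 37 °C and 5% CO2. They were then stimulated for 6 h with anti-CD3 solution at 0.4 μg/mL; reference wells received 4 μg/mL and unstimulated wells medium only. Readout was Steady-Glo luciferase luminescence (RLU).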

[3] = extruded liposome substrate, read-out: DGKζ LIPGLO IC50
[4] = Homo sapiens, Jurkat, read-out: API-Luciferase Reporter IC50, Table 3
[5] = Homo sapiens, Jurkat, read-out: DGKAP1 Lucif Reporter IC50, Table 4

human DGKζ, sequence (Q13574 other isoform, or with tags, fused parts or gaps): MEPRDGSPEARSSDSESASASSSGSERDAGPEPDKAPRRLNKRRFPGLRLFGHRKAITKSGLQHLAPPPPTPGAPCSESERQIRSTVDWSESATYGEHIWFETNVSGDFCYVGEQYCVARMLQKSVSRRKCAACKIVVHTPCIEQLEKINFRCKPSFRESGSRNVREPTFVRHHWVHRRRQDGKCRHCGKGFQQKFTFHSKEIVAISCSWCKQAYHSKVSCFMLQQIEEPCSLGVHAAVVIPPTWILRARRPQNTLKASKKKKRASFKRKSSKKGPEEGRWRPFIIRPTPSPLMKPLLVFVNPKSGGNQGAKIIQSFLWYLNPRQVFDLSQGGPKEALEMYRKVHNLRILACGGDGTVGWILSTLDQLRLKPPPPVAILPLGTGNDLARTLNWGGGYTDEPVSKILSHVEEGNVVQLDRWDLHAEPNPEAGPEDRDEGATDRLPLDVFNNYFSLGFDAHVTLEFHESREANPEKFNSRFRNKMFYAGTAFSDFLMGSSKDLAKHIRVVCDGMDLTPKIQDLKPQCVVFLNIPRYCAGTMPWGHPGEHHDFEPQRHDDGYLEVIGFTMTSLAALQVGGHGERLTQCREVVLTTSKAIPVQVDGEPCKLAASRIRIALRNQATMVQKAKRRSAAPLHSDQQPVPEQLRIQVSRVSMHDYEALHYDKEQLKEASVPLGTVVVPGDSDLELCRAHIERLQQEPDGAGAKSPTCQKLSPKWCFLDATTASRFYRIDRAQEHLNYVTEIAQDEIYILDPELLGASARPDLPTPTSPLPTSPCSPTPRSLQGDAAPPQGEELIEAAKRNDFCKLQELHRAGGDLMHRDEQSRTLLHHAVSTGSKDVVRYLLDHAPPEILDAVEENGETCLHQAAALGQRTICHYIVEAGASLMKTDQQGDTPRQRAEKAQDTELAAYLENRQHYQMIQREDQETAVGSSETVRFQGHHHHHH

With `COc1ccc2c(n1)c(N1CCN(C(c3ccc(F)cc3)c3ccc(F)cc3OC)CC1)c(C#N)c(=O)n2C` (racemic) [Example 412, 4-{4-[(4-fluoro-2-methoxyphenyl)(4-fluorophenyl)methyl]piperazin-1-yl}-6-methoxy-1-methyl-2-oxo-1,2-dihydro-1,5-naphthyridine-3-carbonitrile] the IC50 [1, 3] was 600 nM.
`COc1ccccc1C(c1ccc(F)cc1)N1CCN(c2c(C#N)c(=O)n(C)c3ccc(Br)nc23)CC1` (single isomer, unassigned) [Example 13, 6-bromo-4-{4-[(4-fluorophenyl)(2-methoxyphenyl)methyl]piperazin-1-yl}-1-methyl-2-oxo-1,2-dihydro-1,5-naphthyridine-3-carbonitrile] was tested, and the IC50 [2, 4] was 1300 nM.
Molecule `COc1cc(F)ccc1C(c1ccc(F)cc1)N1CCN(c2c(C#N)c(=O)n(C)c3ccc(Br)nc23)CC1` (single isomer, unassigned) [Example 17, 6-bromo-4-{4-[(4-fluoro-2-methoxyphenyl)(4-fluorophenyl)methyl]piperazin-1-yl}-1-methyl-2-oxo-1,2-dihydro-1,5-naphthyridine-3-carbonitrile] has an IC50 [1, 3] of 9400 nM, an IC50 [2, 4] of 350 nM and an IC50 [2, 5] of 1330 nM.
For `CC(c1ccc(F)cc1)N1CCN(c2c([N+](=O)[O-])c(=O)n(C)c3ccc(C#N)nc23)CC1` (single isomer, unassigned) [Example 44, 8-(4-(1-(4-fluorophenyl)ethyl)piperazin-1-yl)-5-methyl-7-nitro-6-oxo-5,6-dihydro-1,5-naphthyridine-2-carbonitrile], the IC50 [1, 3] was 1300 nM and the IC50 [2, 4] was 350 nM.
`C#CCn1c(=O)c([N+](=O)[O-])c(N2CCN(C(c3ccc(F)cc3)c3ccc(F)cc3O)CC2)c2nc(C#N)ccc21` (single isomer, unassigned) [Example 121, 8-(4-((4-fluoro-2-hydroxyphenyl)(4-fluorophenyl)methyl)piperazin-1-yl)-7-nitro-6-oxo-5-(prop-2-yn-1-yl)-5,6-dihydro-1,5-naphthyridine-2-carbonitrile] showed an IC50 [1, 3] of 55 nM and an IC50 ([2]; read-out: API-Luciferase Reporter IC50, Table 3) of 340 nM.
For `COc1cc(F)ccc1C(c1ccc(F)cc1)N1CCN(c2c([N+](=O)[O-])c(=O)n(C)c3ccc(C#N)nc23)CC1` (single isomer, unassigned) [Example 124, 8-(4-((4-fluoro-2-methoxyphenyl)(4-fluorophenyl)methyl)piperazin-1-yl)-5-methyl-7-nitro-6-oxo-5,6-dihydro-1,5-naphthyridine-2-carbonitrile], the IC50 ([1]; DGKζ LIPGLO IC50, extruded liposome substrate) was 160 nM, the IC50 [2, 4] was 100 nM and the IC50 [2, 5] was 570 nM.
`COc1cc(F)ccc1C(c1ccc(F)cc1)N1CCN(c2c(C#N)c(=O)n(C)c3ccc(C#N)nc23)CC1` (single isomer, unassigned) [Example 406, 8-{4-[(4-fluoro-2-methoxyphenyl)(4-fluorophenyl)methyl]piperazin-1-yl}-5-methy-6-oxo-5,6-dihydro-L5-naphthyridine-2,7-dicarbonitrile] showed an IC50 [1, 3] of 3100 nM.
`COc1cc(F)ccc1C(c1ccc(F)cc1)N1CCN(c2c(C#N)c(=O)n(C)c3ccc(C#N)nc23)CC1` (single isomer, unassigned) [Example 407, 8-{4-[(4-fluoro-2-methoxyphenyl)(4-fluorophenyl)methyl]piperazin-1-yl}-5-methy-6-oxo-5,6-dihydro-L5-naphthyridine-2,7-dicarbonitrile] was tested, and the IC50 [1, 3] was 450 nM.
With `Cn1c(=O)c(C#N)c(N2CCN(Cc3cccc4ccccc34)CC2)c2nc(C#N)ccc21` [Example 404, 5-methyl-8-{4-[(naphthalen-1-yl)methyl]piperazin-1-yl}-6-oxo-5,6-dihydro-1,5-naphthyridine-2,7-dicarbonitrile] the IC50 [1, 3] was 3900 nM.
Molecule `Cn1c(=O)c(C#N)c(N2CCN(C(C)(C)c3ccc(F)cc3)CC2)c2nc(Cl)ccc21` [Example 425, 6-chloro-4-{4-[2-(4-fluorophenyl)propan-2-yl]piperazin-1-yl}-1-methyl-2-oxo-1,2-dihydro-1,5-naphthyridine-3-carbonitrile] has an IC50 [1, 3] greater than 240000 nM.
